Laboratory results reported in US20080312292A1, “Antipruritics” (priority 2002, published 2008).
Like-named read-outs stand apart in the source and are kept apart here. Marks after values point to notes of the source that are not given here.

What was measured:
[1] = target: T1, human CB2R (Homo sapiens, UniProt P34972); test: Cannabinoid receptor-mediated suppression of forskolin-stimulated cAMP synthesis, CB2R; assay type: cell-based
T1 construct: expressed in transfected cells; host or cells: CHO cells
T1 sequence (P34972 whole entry): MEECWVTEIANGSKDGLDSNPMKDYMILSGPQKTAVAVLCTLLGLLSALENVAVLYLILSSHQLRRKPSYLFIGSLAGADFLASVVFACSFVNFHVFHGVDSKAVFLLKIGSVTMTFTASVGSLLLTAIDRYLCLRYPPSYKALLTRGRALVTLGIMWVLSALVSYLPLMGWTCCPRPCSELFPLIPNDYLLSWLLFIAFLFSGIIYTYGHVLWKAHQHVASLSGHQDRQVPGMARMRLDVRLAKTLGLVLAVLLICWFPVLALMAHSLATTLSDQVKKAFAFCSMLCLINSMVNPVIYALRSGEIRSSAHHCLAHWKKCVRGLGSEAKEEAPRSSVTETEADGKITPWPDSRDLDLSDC

[2] = target: T2, Human cannabinoid receptor CB1R (Homo sapiens, UniProt P21554); test: Human cannabinoid receptor binding inhibition, [3H]CP55940, CB1R; details: membranes of CB1R-expressing CHO cells, [3H]CP55940 0.5 nM; read-out: Ki CB1 receptor
T2 construct: expressed in transfected cells; host or cells: CHO cells
T2 sequence (P21554 whole entry): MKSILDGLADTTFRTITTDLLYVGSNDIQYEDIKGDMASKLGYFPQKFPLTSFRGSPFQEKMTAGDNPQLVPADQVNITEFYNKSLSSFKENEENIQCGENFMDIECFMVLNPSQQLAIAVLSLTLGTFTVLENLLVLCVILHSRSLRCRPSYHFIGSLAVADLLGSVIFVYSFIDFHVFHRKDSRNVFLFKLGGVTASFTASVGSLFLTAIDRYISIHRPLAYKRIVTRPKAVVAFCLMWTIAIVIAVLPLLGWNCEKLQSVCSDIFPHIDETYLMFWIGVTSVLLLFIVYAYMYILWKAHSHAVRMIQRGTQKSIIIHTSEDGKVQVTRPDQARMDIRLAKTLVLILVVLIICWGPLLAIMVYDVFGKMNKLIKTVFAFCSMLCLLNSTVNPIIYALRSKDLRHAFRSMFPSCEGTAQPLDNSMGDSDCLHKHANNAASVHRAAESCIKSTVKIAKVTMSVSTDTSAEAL
Method: (§1) The crude membrane fractions as Human cannabinoid receptor were then prepared from the CB1R or CB2R-expressing CHO cells. Receptor binding assay was performed by incubating the membranes with each test compound and 38,000 dpm [^3H]CP55940 (at a final concentration of 0.5 nM: NEN Life Science Products) in the assay buffer (50 mM Tris-HCl; 1 mM EDTA, 3 mM MgCl2, pH 7.4) containing 0.5% bovine serum albumin (BSA) for 2 hr at 25° C. The incubation mixture was filtered through 1% polyethylenimine (PEI)-treated GF/C glass filter and washed with 50 mM Tris-HCl (pH 7.4) containing 0.1% BSA. The radioactivity was then counted with a liquid scintillation counter. […] Ki value of test compound is calculated by obtained IC50 value and Kd value of [^3H]CP55940.

[3] = target: T3, Human cannabinoid receptor CB2R (Homo sapiens, UniProt P34972); test: Human cannabinoid receptor binding inhibition, [3H]CP55940, CB2R; details: membranes of CB2R-expressing CHO cells, [3H]CP55940 0.5 nM; read-out: Ki CB2 receptor
T3 construct: expressed in transfected cells; host or cells: CHO cells
T3 sequence (P34972 whole entry): as the sequence (P34972 whole entry) above
Method: as §1

[4] = target: T4, human CB1R (Homo sapiens, UniProt P21554); test: cell-based; details: CHO cells expressing human CB1R
T4 construct: expressed in transfected cells; host or cells: CHO cells
T4 sequence (P21554 whole entry): as the sequence (P21554 whole entry) above

[5] = target: T5, mouse CB1 receptor (Mus musculus, UniProt P47746); test: Binding inhibitory activity to mouse cannabinoid receptors, brain membrane fraction; set-up: species or system C57BL/6 J mice
T5 construct: The membrane fractions of mouse brain and spleen that abundantly express CB1 and CB2 receptor, respectively; from tissue; host or cells: mouse brain membrane fraction (C57BL/6 J)
T5 sequence (P47746 whole entry): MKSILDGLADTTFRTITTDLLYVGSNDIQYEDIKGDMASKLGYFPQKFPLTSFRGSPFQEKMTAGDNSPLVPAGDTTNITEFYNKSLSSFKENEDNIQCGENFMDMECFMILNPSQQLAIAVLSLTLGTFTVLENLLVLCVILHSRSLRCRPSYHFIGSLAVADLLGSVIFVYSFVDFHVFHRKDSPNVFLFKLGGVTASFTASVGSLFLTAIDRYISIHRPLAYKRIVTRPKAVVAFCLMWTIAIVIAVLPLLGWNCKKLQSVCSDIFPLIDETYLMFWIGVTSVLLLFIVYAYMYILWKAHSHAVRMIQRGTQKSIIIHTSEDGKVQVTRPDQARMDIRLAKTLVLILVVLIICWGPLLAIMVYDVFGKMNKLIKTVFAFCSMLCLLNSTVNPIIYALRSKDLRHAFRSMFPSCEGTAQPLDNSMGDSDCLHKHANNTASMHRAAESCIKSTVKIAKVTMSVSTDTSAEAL

[6] = system: compound 48/80-induced pruritus; test: Inhibitory effect on compound 48/80-induced pruritus in ICR strain mice; details: for Antipruritic Effect (%): ICR mice, compound 48/80-induced scratching
[7] = target: T6, mouse CB2 receptor (Mus musculus, UniProt P47936); test: Binding inhibitory activity to mouse cannabinoid receptors, spleen membrane fraction; set-up: species or system C57BL/6 J mice
T6 construct: The membrane fractions of mouse brain and spleen that abundantly express CB1 and CB2 receptor, respectively; from tissue; host or cells: mouse spleen membrane fraction (C57BL/6 J)
T6 sequence (P47936 whole entry): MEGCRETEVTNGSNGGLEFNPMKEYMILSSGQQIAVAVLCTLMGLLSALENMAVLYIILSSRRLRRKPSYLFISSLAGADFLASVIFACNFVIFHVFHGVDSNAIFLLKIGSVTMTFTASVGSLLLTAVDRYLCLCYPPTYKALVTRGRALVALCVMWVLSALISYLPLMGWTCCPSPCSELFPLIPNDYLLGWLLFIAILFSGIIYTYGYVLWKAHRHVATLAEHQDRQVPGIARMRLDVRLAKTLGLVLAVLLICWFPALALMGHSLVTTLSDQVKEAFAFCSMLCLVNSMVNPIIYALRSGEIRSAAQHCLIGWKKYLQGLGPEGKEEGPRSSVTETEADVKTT

[8] = forskolin-stimulated cAMP synthesis, read-out: CB1 receptor IC50
[9] = CHO cells expressing human CB2R, read-out: cAMP Inhibition: IC50 CB2
[10] = mouse brain membrane fraction, read-out: Binding Assay: Ki Brain (CB1)
[11] = read-out: cAMP Inhibition: IC50 CB1
[12] = mouse spleen membrane fraction, read-out: Binding Assay: Ki Spleen (CB2)
[13] = CHO cells expressing human CB2R, forskolin-stimulated cAMP synthesis, read-out: CB2 receptor IC50

In the case of `CCCCn1c2c(cc(C(=O)NCc3ccccc3)c1=O)CCCC2` [Compound 4-001], the IC50 [1] is reported as 64.2 nM, the Ki [2] is reported as 2850 nM and the Ki [3] is reported as 28 nM.
With `CCc1ccccc1N=C1SCC(C)(C)CN1C(=S)SC` [Compound I-56] the melting point was 107 to 109 °C.
`CC(C)OC(=O)CSC(=S)N1CC(C)(C)CSC1=Nc1ccccc1C(C)C` [II-13] showed a melting point of 95 to 96 °C.
With `CCCCn1c2c(cc(C(=O)NC(C)(C)c3ccccc3)c1=O)[C@@H]1CC[C@H]2C1` [Compound 13-023] the IC50 [4, 8] was 0.3 nM.
Compound `Cc1ccc(Oc2nc3ccccc3o2)c(=S)n1C` has a melting point of 245 to 247 °C.
With `CCCCn1c(C)c(C)cc(NC(=O)c2ccccc2C)c1=O` [Compound 5-006] the Ki [3] was 14 nM.
Compound `CCCCn1c2c(cc(C(=O)NCCc3ccccc3)c1=O)CCCC2` [Compound 4-002, 1-butyl-2-oxo-1,2,5,6,7,8-hexahydroquinoline-3-carboxylic acid phenethylamide] has a Ki [2] of 746 nM and a Ki [3] of 17 nM.
For `CCCCn1c2c(cc(C(=O)NC3CCCCC3)c1=O)CCCCCC2` [Compound 10-035], the IC50 [1, 9] was 0.2 nM, the Ki [5, 10] was 12 nM and the “Antipruritic Effect (%)” value ([6]; 100 mg/kg (p.o.)) was 93** %. It also gave an IC50 [4, 11] of 29 nM and a Ki [7, 12] of 0.1 nM.
Compound `CSC(=S)N1CC(C)(C)CSC1=Nc1ccc(C)c(C)c1` [Compound I-74] has an IC50 [1, 13] of 1.6 nM and a melting point of 126 to 128 °C.
`CCSC(=S)N1CC(C)(C)CSC1=Nc1ccccc1C(C)C` [Compound I-84] showed a melting point of 68 to 70 °C.
`CCCc1ccccc1N=C1SCC(C)(C)CN1C(=O)SC` [Compound I-49] gave an IC50 [1, 13] of 2.2 nM and a melting point of 64 to 66 °C.
With `CCCCn1c(C)c(C)cc(NC(=O)Nc2ccccc2Br)c1=O` the melting point was 154 to 155 °C.
In the case of `CCSC(=O)N1CC(C)(C)CSC1=Nc1ccc(C)cc1C` [Compound I-39], the IC50 [1, 13] is reported as 13.7 nM.
With `CCCCn1c2c(cc(C(=O)Nc3ccccc3C(F)(F)F)c1=O)CCCCCC2` [Compound 10-103] the IC50 [4, 8] was 6.3 nM.
Work on `C=CCSC(=S)N1CC2(CCOCC2)CSC1=Nc1ccccc1C(C)C` [II-92] yielded a melting point of 73.5 to 75 °C.
With `CCCCn1c2c(cc(C(=O)N[C@@H](CC)c3ccccc3)c1=O)CCCCCC2` [Compound 10-059] the IC50 [4, 8] was 6.1 nM.
In the case of `COCCn1c2c(cc(C(=O)NCc3ccccc3)c1=O)CCCCCC2` [Compound 4-301], the Ki [2] is reported as 1770 nM and the Ki [3] is reported as 8 nM.
With `Cc1c(C(=O)c2cccc3ccccc23)c2cccc3c2n1[C@H](CN1CCOCC1)CO3` [WIN55212-2, reference compound] the “Antipruritic Effect (%)” value ([6]; 100 mg/kg (p.o.)) was 70* % and the Ki [7, 12] was 6 nM.
`C=CCSC(=S)N1CC2(CCCCC2)CSC1=Nc1ccccc1OC` [II-86] gave an IC50 [1, 9] of 1 nM, a Ki [5] of 12 nM and a melting point of 108.5 to 109.5 °C. The “Antipruritic Effect (%)” value ([6]; 100 mg/kg (p.o.)) was 98** %, the IC50 [4, 11] was 16.8 nM and the Ki [7] was 1.1 nM.
`CCC(C)CNC(=O)c1cc(C)c(C)n(CC2CCCCC2)c1=O` (stereo not shown) [Compound 11-012] gave an IC50 [4, 8] of 7.8 nM.
Work on `COCC(=O)N1CC(C)(C)CSC1=Nc1ccccc1C(C)C` [Compound I-93] yielded an IC50 [1, 13] of 0.6 nM and a melting point of 76 to 78 °C.
For `Cc1cc(C(=O)NC2CCCc3ccccc32)c(=O)n(CC2CCCCC2)c1C` (stereo not shown) [Compound 11-011], the IC50 [4, 8] was 0.6 nM.
For `C=CCSC(=S)N1CC2(CCCCC2)CSC1=Nc1ccc(CC)cc1` [II-88], the melting point was 98 to 100 °C.
In the case of `CCCCn1c2c(cc(C(=O)NC(C)(C)c3ccccc3)c1=O)COCC2` [Compound 13-044], the IC50 [4, 8] is reported as 1.8 nM.
`CCCCn1c2c(cc(C(=O)NCCc3ccc(N)cc3)c1=O)CCCCCC2` [Compound 4-104] gave an IC50 [1] of 9.8 nM, a Ki [2] of 54 nM and a Ki [3] of 6 nM.
Work on `CCn1c(C)c(C)cc(C(=O)NCc2ccccc2)c1=O` yielded a melting point of 117 °C.
Work on `CCC(C)c1ccccc1N=C1SCC(C)(C)CN1C(=O)SC` (stereo not shown) [Compound I-51] yielded a melting point of 53 to 56 °C.
`CCCCn1c2c(cc(C(=O)N[C@H](CC)c3ccccc3)c1=O)CCCCCC2` [Compound 10-058] showed an IC50 [4, 8] of 2.4 nM.
`CCCCn1c2c(cc(C(=O)N[C@H](CF)c3ccccc3)c1=O)CCCCCC2` [Compound 10-089] showed an IC50 [4, 8] of 9.4 nM.
In the case of `Cc1cc(C(=O)NCC(C)(C)C)c(=O)n(CC2CCCCC2)c1C` [Compound 11-013], the IC50 [4, 8] is reported as 7.5 nM.
Compound `CCCCn1c(C)c(C)cc(C(=O)NC(C)(C)c2ccccc2)c1=O` [Compound 11-001] has an IC50 [4, 8] of 1.2 nM.
With `CCCCn1c2c(cc(C(=O)NC(=O)c3c(F)cccc3F)c1=O)CCCCCC2` [Compound 10-045] the IC50 [4, 8] was 1.2 nM.
Work on `CCCCn1c(C)c(C)cc(C(=O)NCCc2ccccc2)c1=O` [Compound 3-010] yielded a Ki [3] of 57 nM.
In the case of `CCCCn1c2c(cc(NC(=O)c3ccccc3Cl)c1=O)CCCCCC2` [Compound 13-006], the IC50 [4, 8] is reported as 1.6 nM.
Compound `CSC(=S)N1CC2(CCOCC2)CSC1=Nc1ccccc1C(C)C` [II-93] has a melting point of 127 to 128 °C.
Compound `CCCCn1c2c(cc(C(=O)NCC(C)(C)C)c1=O)CCCCCC2` [Compound 10-041] has an IC50 [4, 8] of 3.5 nM.
Work on `CCCCn1c(C)c(C)cc(NC(=O)c2ccccc2Cl)c1=O` [Compound 5-005] yielded a Ki [3] of 16 nM.
`CCCCn1c2c(cc(C(=O)N[C@H](C)C3CCCCC3)c1=O)CCCCCC2` [Compound 10-050] gave an IC50 [4, 8] of 2 nM.
For `CCCCn1c2c(cc(C(=O)NCCc3ccccc3)c1=O)CCCCCC2` [Compound 4-102], the IC50 [1] was 1.7 nM, the Ki [2] was 908 nM and the Ki [3] was 1.6 nM.
Compound `COc1c(Oc2nc3ccccc3o2)c(C)c(C)n(Cc2ccccc2)c1=O` has a melting point of 197 to 198 °C.
With `COc1ccccc1N=C1SCC(C)(C)CN1C(=S)SC` [Compound I-60] the melting point was 128 to 130 °C.
For `COCCn1c2c(cc(C(=O)NCCc3ccccc3)c1=O)CCCCCC2` [Compound 4-302], the Ki [2] was > 5000 nM and the Ki [3] was 10 nM.
With `CSC(=S)N1CC2(CCCCC2)CSC1=Nc1ccccc1C(C)C` [Compound I-270] the IC50 [1, 9] was 7.9 nM, the Ki [5, 10] was 80 nM and the “Antipruritic Effect (%)” value ([6]; 100 mg/kg (p.o.)) was 98** %. The IC50 [4, 11] was 68.7 nM and the Ki [7, 12] was 1.2 nM.
For `CCCCCc1cc(O)c2c(c1)OC(C)(C)[C@@H]1CCC(C)=C[C@@H]21` [Δ^9-tetrahydrocannabinol, delta-9-tetrahydrocannabinol, reference compound], the “Antipruritic Effect (%)” value ([6]; 10 mg/kg (i.p.)) was 98**# %, the “inhibitory effect on compound 48/80-induced pruritus (number of scratching vs vehicle group)” value ([6]; female ICR mice, oral administration once, scratching counted for 30 min) was “inhibited compound 48/80-induced pruritus” and the Ki [7, 12] was 9.2 nM.
`CSC(=O)N1CC(C)(C)CSC1=Nc1ccccc1C(C)C` [Compound I-50] showed a melting point of 95 to 96 °C.
For `CCSC(=O)N1CCSC1=Nc1ccccc1C(C)C` [Compound I-6], the Ki [2] was > 5000 nM.
In the case of `CCCCn1c(C)c(C)cc(Oc2nc3ccccc3o2)c1=S` [Compound 2-004, 1-butyl-5,6-dimethyl-3-O-(benzoxazol-2-yl)-2-thiopyridone], the Ki [3] is reported as 101 nM.
For `CSC(=S)N1CC(C)(C)CSC1=Nc1ccccc1SC` [Compound I-62], the melting point was 137 to 139 °C.
Work on `CCSC(=O)N1CC(C)(C)CSC1=Nc1ccc([N+](=O)[O-])cc1C(C)C` [Compound I-46] yielded an IC50 [1, 13] of 5.4 nM and a melting point of 119 to 120 °C.
`CCCCn1c(C)c(C)cc(NC(=O)OCc2ccccc2)c1=O` showed a melting point of 65 to 66 °C.
Work on `CSC(=O)N1CC(C)(C)CSC1=Nc1cccc(C(C)C)c1` [Compound I-52] yielded a melting point of 88 to 90 °C.
Compound `O=C(NCc1ccccc1)c1cc2c(n(Cc3ccncc3)c1=O)CCCCCC2` [Compound 4-310] has a Ki [2] of 512 nM and a Ki [3] of 9 nM.
With `CCCCn1c(C)c(C)cc(NC(=O)c2ccc(F)cc2)c1=O` the melting point was 129 to 130 °C.
Work on `CCCCn1c(C)c(I)cc(C(=O)NCCc2ccccc2)c1=O` [Compound 3-038] yielded an IC50 [1] of 28.6 nM, a Ki [2] of 1250 nM and a Ki [3] of 12 nM.
In the case of `CCCCn1c2c(cc(C(=O)NCCc3ccc(O)cc3)c1=O)CCCCCC2` [Compound 4-105], the Ki [2] is reported as 91 nM and the Ki [3] is reported as 2.1 nM.
Work on `CCCCn1c2c(cc(C(=O)NCCc3ccccc3)c1=O)CCC2` [Compound 4-052] yielded a Ki [2] of 1500 nM and a Ki [3] of 24 nM.
With `CCNC(=O)N1CC(C)(C)CSC1=Nc1ccccc1C(C)C` [Compound I-92] the IC50 [1, 13] was < 0.2 nM and the melting point was 52 to 53 °C.
Compound `Cc1c(C)c(C)n(CC2CCCCC2)c(=O)c1C(=O)NCc1ccccc1` [Compound 3-109] has an IC50 [4, 8] of 2.7 nM.
Compound `CCCCn1c(-c2ccccc2)c(C)cc(C(=O)NC(C)(C)c2ccccc2)c1=O` [Compound 13-030] has an IC50 [4, 8] of 0.7 nM.
